According to publication PMC7531004, “Discovery of gramicidin A analogues with altered activities by multidimensional screening of a one-bead-one-compound library” (Nature Communications, 2020):
Where a SMILES comes first, the peptide text is derived from it. [ ]: non-standard residue; d: D form. The star is where a group is joined. NHCH2CH2OH = OCCN*; For = O=C*

Tests used:
[1] = H+/Na+ transport assay of bead-derived peptides (one-point); type: biochemical; parameters: key: relative activity; mean of two control wells = 1.00; settings: bead-derived peptide solution, EYPC/EYPG LUVs;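 note: relative to parent gramicidin A activity set to 1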
Summary of the method: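 Pyranine (1.0 mM)-loaded LUVs containing egg yolk phosphatidylglycerol were prepared by film hydration, sonication and extrusion, then mixed with diluted bead-derived peptide in 96-well format and vortexed 30 min at room temperature. Fluorescence was normalized between untreated LUVs (0%) and Triton X-100 lysis (100%).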

[2] = cell viability/%
Summary of the method: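 Peptide stocks diluted 250× in growth medium; P388 cells 1 × 10^4 cells/mL final; 37 °C, 5% CO2, 92 h. WST-1 + 1-methoxy PMS, 4 h, A415. Output: % viability.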

[3] = system: Streptococcus pyogenes SSI-9; assay: Antibacterial activity assay of bead-derived peptides (three concentrations); type: cell-based; parameters: key: +++: inhibition by the 640-fold diluted peptide solution; ++: inhibition by the 160-fold diluted solution; +: inhibition by the 40-fold diluted solution; -: no inhibition; settings: S. pyogenes, bead-derived peptide solution, three concentrations
Summary of the method: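 Growth inhibition scored visually as precipitated bacteria after 37 °C, 18 h incubation. Streptococcus pyogenes SSI-9 inoculum of 2 × 10^5 CFU in Ca2+/Mg2+-adjusted Mueller Hinton broth plus 5% laked horse blood; peptides tested at three levels: stock, 4-fold and 16-fold DMSO dilutions.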

| Compound | H+/Na+ transport activity normalized against the value of 1 (1.00) [1] | viability [2] | antibacterial activity [3] |
| --- | --- | --- | --- |
| CC(C)C[C@@H](NC(=O)[C@H](C)NC(=O)[C@H](NC(=O)[C@H](C)NC(=O)CNC(=O)[C@@H](NC=O)C(C)C)[C@H](C)O)C(=O)N[C@H](C(=O)N[C@H](CC(C)C)C(=O)N[C@@H](Cc1c[nH]c2ccccc12)C(=O)N[C@@H](C(=O)N[C@@H](Cc1c[nH]c2ccccc12)C(=O)N[C@@H](C(=O)N[C@@H](Cc1c[nH]c2ccccc12)C(=O)N[C@@H](C(=O)N[C@@H](Cc1c[nH]c2ccccc12)C(=O)NCCO)C(C)C)C(C)C)C(C)C)C(C)C [compound 1842] (For-VGA[dT]A[dL]V[dL]W[dV]W[dV]W[dV]W-NHCH2CH2OH) | 1.26 | 100% | - |
| CC(C)C[C@@H](NC(=O)[C@H](C)NC(=O)CNC(=O)[C@@H](NC=O)C(C)C)C(=O)N[C@@H](C)C(=O)N[C@H](CC(C)C)C(=O)N[C@H](C(=O)N[C@H](CC(C)C)C(=O)N[C@@H](Cc1c[nH]c2ccccc12)C(=O)N[C@H](CC(C)C)C(=O)N[C@@H](Cc1c[nH]c2ccccc12)C(=O)N[C@@H](C(=O)N[C@@H](Cc1c[nH]c2ccccc12)C(=O)N[C@H](CC(C)C)C(=O)N[C@@H](Cc1c[nH]c2ccccc12)C(=O)NCCO)[C@H](C)O)C(C)C [compound 1888] (For-VGA[dL]A[dL]V[dL]W[dL]W[dT]W[dL]W-NHCH2CH2OH) | 1.16 | 100% | - |
| CC(C)C[C@@H](NC(=O)[C@H](C)NC(=O)CNC(=O)[C@@H](NC=O)C(C)C)C(=O)N[C@@H](C)C(=O)N[C@@H](C(=O)N[C@H](C(=O)N[C@H](CC(C)C)C(=O)N[C@@H](Cc1c[nH]c2ccccc12)C(=O)N[C@H](CC(C)C)C(=O)N[C@@H](Cc1c[nH]c2ccccc12)C(=O)N[C@@H](C(=O)N[C@@H](Cc1c[nH]c2ccccc12)C(=O)N[C@@H](C(=O)N[C@@H](Cc1c[nH]c2ccccc12)C(=O)NCCO)C(C)C)C(C)C)C(C)C)[C@H](C)O [compound 1898] (For-VGA[dL]A[dT]V[dL]W[dL]W[dV]W[dV]W-NHCH2CH2OH) | 1.07 | 100% | - |
| CC(C)C[C@@H](NC(=O)[C@H](C)NC(=O)CNC(=O)[C@@H](NC=O)C(C)C)C(=O)N[C@@H](C)C(=O)N[C@@H](C(=O)N[C@H](C(=O)N[C@H](CC(C)C)C(=O)N[C@@H](Cc1c[nH]c2ccccc12)C(=O)N[C@H](CC(C)C)C(=O)N[C@@H](Cc1c[nH]c2ccccc12)C(=O)N[C@H](CC(C)C)C(=O)N[C@@H](Cc1c[nH]c2ccccc12)C(=O)N[C@@H](C(=O)N[C@@H](Cc1c[nH]c2ccccc12)C(=O)NCCO)[C@H](C)O)C(C)C)C(C)C [compound 1975] (For-VGA[dL]A[dV]V[dL]W[dL]W[dL]W[dT]W-NHCH2CH2OH) | 1.04 | 100% | + |
| CC(C)[C@H](NC=O)C(=O)NCC(=O)N[C@@H](C)C(=O)N[C@@H](C(=O)N[C@@H](C)C(=O)N[C@@H](C(=O)N[C@H](C(=O)N[C@@H](C(=O)N[C@@H](Cc1c[nH]c2ccccc12)C(=O)N[C@@H](C(=O)N[C@@H](Cc1c[nH]c2ccccc12)C(=O)N[C@@H](C(=O)N[C@@H](Cc1c[nH]c2ccccc12)C(=O)N[C@@H](C(=O)N[C@@H](Cc1c[nH]c2ccccc12)C(=O)NCCO)[C@H](C)O)C(C)C)C(C)C)C(C)C)C(C)C)C(C)C)C(C)C [compound 1983] (For-VGA[dV]A[dV]V[dV]W[dV]W[dV]W[dT]W-NHCH2CH2OH) | 1.00 | 100% | - |
| CC(C)C[C@@H](NC(=O)[C@H](Cc1c[nH]c2ccccc12)NC(=O)[C@H](NC(=O)[C@H](Cc1c[nH]c2ccccc12)NC(=O)[C@H](NC(=O)[C@@H](NC(=O)[C@H](NC(=O)[C@H](C)NC(=O)[C@H](NC(=O)[C@H](C)NC(=O)CNC(=O)[C@@H](NC=O)C(C)C)C(C)C)C(C)C)C(C)C)C(C)C)[C@H](C)O)C(=O)N[C@@H](Cc1c[nH]c2ccccc12)C(=O)N[C@@H](C(=O)N[C@@H](Cc1c[nH]c2ccccc12)C(=O)NCCO)C(C)C [compound 2066] (For-VGA[dV]A[dV]V[dV]W[dT]W[dL]W[dV]W-NHCH2CH2OH) | 1.07 | 100% | - |
| CC(C)C[C@@H](NC(=O)[C@H](Cc1c[nH]c2ccccc12)NC(=O)[C@@H](CC(C)C)NC(=O)[C@H](Cc1c[nH]c2ccccc12)NC(=O)[C@H](NC(=O)[C@H](Cc1c[nH]c2ccccc12)NC(=O)[C@@H](CC(C)C)NC(=O)[C@@H](NC(=O)[C@H](NC(=O)[C@H](C)NC(=O)[C@H](NC(=O)[C@H](C)NC(=O)CNC(=O)[C@@H](NC=O)C(C)C)C(C)C)[C@H](C)O)C(C)C)C(C)C)C(=O)N[C@@H](Cc1c[nH]c2ccccc12)C(=O)NCCO [compound 2085] (For-VGA[dV]A[dT]V[dL]W[dV]W[dL]W[dL]W-NHCH2CH2OH) | 1.20 | 100% | - |
| CC(C)C[C@@H](NC(=O)[C@H](C)NC(=O)[C@H](NC(=O)[C@H](C)NC(=O)CNC(=O)[C@@H](NC=O)C(C)C)C(C)C)C(=O)N[C@H](C(=O)N[C@H](CC(C)C)C(=O)N[C@@H](Cc1c[nH]c2ccccc12)C(=O)N[C@H](CC(C)C)C(=O)N[C@@H](Cc1c[nH]c2ccccc12)C(=O)N[C@@H](C(=O)N[C@@H](Cc1c[nH]c2ccccc12)C(=O)N[C@@H](C(=O)N[C@@H](Cc1c[nH]c2ccccc12)C(=O)NCCO)C(C)C)[C@H](C)O)C(C)C [compound 2117] (For-VGA[dV]A[dL]V[dL]W[dL]W[dT]W[dV]W-NHCH2CH2OH) | 1.15 | 100% | + |
| CNC(=O)C[C@@H](NC(=O)[C@@H](NC(=O)[C@H](NC(=O)[C@H](C)NC(=O)[C@@H](CC(C)C)NC(=O)[C@H](C)NC(=O)CNC(=O)[C@@H](NC=O)C(C)C)C(C)C)C(C)C)C(=O)N[C@@H](Cc1c[nH]c2ccccc12)C(=O)N[C@@H](C(=O)N[C@@H](Cc1c[nH]c2ccccc12)C(=O)N[C@H](CC(C)C)C(=O)N[C@@H](Cc1c[nH]c2ccccc12)C(=O)N[C@H](CC(C)C)C(=O)N[C@@H](Cc1c[nH]c2ccccc12)C(=O)NCCO)C(C)C [compound 2118] (For-VGA[dL]A[dV]V[dD](NHMe)W[dV]W[dL]W[dL]W-NHCH2CH2OH) | 1.26 | 100% | - |
| CC(C)C[C@@H](NC(=O)[C@H](C)NC(=O)[C@H](NC(=O)[C@H](C)NC(=O)CNC(=O)[C@@H](NC=O)C(C)C)[C@H](C)O)C(=O)N[C@H](C(=O)N[C@H](CC(C)C)C(=O)N[C@@H](Cc1c[nH]c2ccccc12)C(=O)N[C@@H](C(=O)N[C@@H](Cc1c[nH]c2ccccc12)C(=O)N[C@@H](C(=O)N[C@@H](Cc1c[nH]c2ccccc12)C(=O)N[C@@H](C(=O)N[C@@H](Cc1c[nH]c2ccccc12)C(=O)NCCO)C(C)C)C(C)C)[C@H](C)O)C(C)C [compound 2139] (For-VGA[dT]A[dL]V[dL]W[dT]W[dV]W[dV]W-NHCH2CH2OH) | 1.05 | 100% | - |
| CC(C)C[C@@H](NC(=O)[C@H](C)NC(=O)CNC(=O)[C@@H](NC=O)C(C)C)C(=O)N[C@@H](C)C(=O)N[C@@H](C(=O)N[C@H](C(=O)N[C@@H](C(=O)N[C@@H](Cc1c[nH]c2ccccc12)C(=O)N[C@@H](C(=O)N[C@@H](Cc1c[nH]c2ccccc12)C(=O)N[C@H](CC(C)C)C(=O)N[C@@H](Cc1c[nH]c2ccccc12)C(=O)N[C@@H](C(=O)N[C@@H](Cc1c[nH]c2ccccc12)C(=O)NCCO)C(C)C)C(C)C)[C@H](C)O)C(C)C)C(C)C [compound 2154] (For-VGA[dL]A[dV]V[dT]W[dV]W[dL]W[dV]W-NHCH2CH2OH) | 1.09 | 100% | - |
| CNC(=O)C[C@@H](NC(=O)[C@@H](NC(=O)[C@H](NC(=O)[C@H](C)NC(=O)[C@@H](CC(C)C)NC(=O)[C@H](C)NC(=O)CNC(=O)[C@@H](NC=O)C(C)C)C(C)C)C(C)C)C(=O)N[C@@H](Cc1c[nH]c2ccccc12)C(=O)N[C@H](CC(C)C)C(=O)N[C@@H](Cc1c[nH]c2ccccc12)C(=O)N[C@@H](C(=O)N[C@@H](Cc1c[nH]c2ccccc12)C(=O)N[C@@H](C(=O)N[C@@H](Cc1c[nH]c2ccccc12)C(=O)NCCO)C(C)C)C(C)C [compound 2195] (For-VGA[dL]A[dV]V[dD](NHMe)W[dL]W[dV]W[dV]W-NHCH2CH2OH) | 1.34 | 100% | - |
| CC(C)C[C@@H](NC(=O)[C@H](C)NC(=O)CNC(=O)[C@@H](NC=O)C(C)C)C(=O)N[C@@H](C)C(=O)N[C@@H](C(=O)N[C@H](C(=O)N[C@@H](C(=O)N[C@@H](Cc1c[nH]c2ccccc12)C(=O)N[C@@H](C(=O)N[C@@H](Cc1c[nH]c2ccccc12)C(=O)N[C@@H](C(=O)N[C@@H](Cc1c[nH]c2ccccc12)C(=O)N[C@H](CC(C)C)C(=O)N[C@@H](Cc1c[nH]c2ccccc12)C(=O)NCCO)C(C)C)[C@H](C)O)C(C)C)C(C)C)C(C)C [compound 2207] (For-VGA[dL]A[dV]V[dV]W[dT]W[dV]W[dL]W-NHCH2CH2OH) | 1.18 | 100% | - |
